Our source for the EC (150% of control) and melting point values is patent US9464049B2, “Indole-carboxamides” (Hoffmann-La Roche Inc., priority 2013, dated 2016).

For data set [1], the system named is human embryonic stem cell derived neural stem cells (NSCs). The data set is described as follows: Neural stem cell proliferation assay (neurogenesis assay, ATP levels by CellTiterGlo). In kind it is cell-based. To be noted: Homo sapiens, Neural stem cell, 96 h; compound concentration at which 150% activity of control (100%) is reached; NSC proliferation by ATP (CellTiterGlo) after 4 days incubation; dose response 8 μM to 8 nM. On the procedure: Neural Stem Cell Proliferation Assay
Neurogenic properties of small molecules are determined based on the proliferation of human embryonic stem cell derived neural stem cells (NSCs) which were derived via a dual smad inhibition as previously described (Chambers, S. M., et al., Highly efficient neural conversion of human ES and iPS cells by dual inhibition of SMAD signaling, Nature biotechnology, 2009. 27(3): p. 275-80.)
Compounds respond is measured by the increase in cells based on ATP levels (Promega:CellTiterGlo®) after an incubation period of 4 days.
NSCs are thawed and expanded over 3 passages. On the 14th day, NSCs are seeded in Polyornithin/Laminin coated 384 well plates at a cell density of 21,000 cells/cm^2 in a media volume of 38 μl.
4 hours after cell seeding, compound solutions are added at a volume of 2 μl. Stock solutions of the compounds (water, 5% DMSO) are diluted to obtain a dose response (11 points, dilution factor is 2), ranging from 8 μM to 8 nM. Controls are run to consistently determine the neurogenic properties of the cells: • Negative (neutral) control is cell culture Media (final DMSO concentration: 0.25%). • Positive controls are: • 1. cell culture Media+100 ng/ml FGF2 (final DMSO concentration: 0.1%) • 2. cell culture Media+20 ng/ml EGF (final DMSO concentration: 0.1%) • 3. cell culture Media+100 ng/ml Wnt3a (final DMSO concentration: 0.1%)
After 4 days incubation at 37° C., 5% CO2, the amount of ATP per well is quantified. The ATP concentration is proportional to the cell number. ATP is quantified by using the Promega CellTiterGlo® kit. The CellTiterGlo® reagents contain a cell lysis buffer, a thermo stable luciferase (UltraGlo™ recombinant luciferase), magnesium and luciferin. Luciferin reacts with ATP producing oxyluciferin, AMP and light. The luminescence signal is proportional to the ATP content.
The value of negative (neutral) control is determined for each assay plate by taking the average of 16 negative control wells. The neurogenic compound response is calculated for each compound as (compound/Negative Control)*100.
The values of EC150 from the dose response curve are determined for each test compound. The EC150 is the compound concentration at which 150% activity of control (100%) is reached.

The compound `Cn1c(C(N)=O)cc2cc(C#N)cc(-c3ccc(Cl)cc3Cl)c21` [Example 63, 5-Cyano-7-(2,4-dichlorophenyl)-1-methylindole-2-carboxamide] registered a melting point of 222.5 °C. The compound also yielded an EC (150% of control) in data set [1] of 0.21 µM.
In the case of `Cc1c(C(N)=O)n(C)c2c(-c3ccc(F)cc3F)cc(F)cc12` [Example 64, 7-(2,4-Difluorophenyl)-5-fluoro-1,3-dimethylindole-2-carboxamide], the melting point came to 192 °C. The compound further came in with an EC (150% of control) in data set [1] of 0.091 µM.
`Cc1cc(-c2cc(C#N)cc3cc(C(N)=O)[nH]c23)ccc1F` [Example 66, 5-Cyano-7-(4-fluoro-3-methylphenyl)-1H-indole-2-carboxamide] returned a melting point of 247 °C. Besides, the EC (150% of control) in data set [1] came to 0.62 µM.
In turn, `Cn1c(C(N)=O)cc2cc(C#N)cc(-c3ccc([N+](=O)[O-])cc3)c21` [Example 67, 5-Cyano-1-methyl-7-(4-nitrophenyl)-indole-2-carboxamide] gave a melting point of 236 °C. In data set [1], this compound returned an EC (150% of control) of 2.05 µM.
For `N#Cc1cc(-c2ccc([N+](=O)[O-])cc2)c2[nH]c(C(N)=O)cc2c1` [Example 68, 5-Cyano-7-(4-nitrophenyl)-1H-indole-2-carboxamide], the melting point was found to be 269 °C. The compound also returned an EC (150% of control) in data set [1] of 0.071 µM.
Consider `N#Cc1cc(-c2ccnc(Cl)c2)c2[nH]c(C(N)=O)cc2c1` [Example 70, 7-(2-Chloropyridin-4-yl)-5-cyano-1H-indole-2-carboxamide], for which the melting point was found to be 297 °C. Also, the EC (150% of control) in data set [1] was determined as 0.14 µM.
`COc1ccc(-c2cc(C#N)cc3cc(C(N)=O)n(C)c23)cc1` [Example 71, 5-Cyano-7-(4-methoxyphenyl)-1-methylindole-2-carboxamide] gave a melting point of 206.5 °C. Moreover, the EC (150% of control) in data set [1] amounted to 0.21 µM.
Regarding `COc1ccc(-c2cc(C#N)cc3cc(C(N)=O)[nH]c23)cc1` [Example 72, 5-Cyano-7-(4-methoxyphenyl)-1H-indole-2-carboxamide], the melting point stood at 255 °C. The compound also yielded an EC (150% of control) in data set [1] of 0.19 µM.
`Cn1c(C(N)=O)cc2cc(C#N)cc(-c3ccc(OC(F)(F)F)cc3)c21` [Example 73, 5-Cyano-1-methyl-7-[4-(trifluoromethoxy)phenyl]indole-2-carboxamide] displayed a melting point of 176 °C. In data set [1], this compound gave an EC (150% of control) of 7.5 µM.
`Cc1ccc(-c2cc(F)cc3c(C)c(C(N)=O)[nH]c23)cc1` [Example 74, 5-Fluoro-3-methyl-7-(4-methylphenyl)-1H-indole-2-carboxamide]: the melting point came out at 192 °C. This compound gave an EC (150% of control) in data set [1] of 0.17 µM.
The compound `Cc1c(C(N)=O)[nH]c2c(-c3ccc(F)c(F)c3F)cc(F)cc12` [Example 75, 5-Fluoro-3-methyl-7-(2,3,4-trifluorophenyl)-1H-indole-2-carboxamide] had a melting point of 209 °C. In data set [1], the EC (150% of control) was 0.082 µM.
Regarding `COc1ccc(-c2cc(F)cc3c(C)c(C(N)=O)[nH]c23)cc1` [Example 76, 5-Fluoro-7-(4-methoxyphenyl)-3-methyl-1H-indole-2-carboxamide], the melting point came out at 217 °C. Besides, the EC (150% of control) in data set [1] was 0.009 µM.
On to `Cc1c(C(N)=O)[nH]c2c(-c3ccc(Cl)cc3F)cc(F)cc12` [Example 77, 7-(4-Chloro-2-fluorophenyl)-5-fluoro-3-methyl-1H-indole-2-carboxamide], for which the melting point amounted to 216 °C. The compound also gave an EC (150% of control) in data set [1] of 0.022 µM.
`Cc1c(C(N)=O)[nH]c2c(-c3ccncc3)cc(F)cc12` [Example 78, 5-Fluoro-3-methyl-7-pyridin-4-yl-1H-indole-2-carboxamide] yielded a melting point of 270 °C. In data set [1], this compound registered an EC (150% of control) of 0.053 µM.
